The results in this text go back to US8168644B2, “Quinazolinone derivatives as tubulin polymerization inhibitors” (Janssen Pharmaceutica NV, priority 2008, dated 2012).

Some results are limits rather than exact numbers.

In one data set the test system is α-β-Tubulin. Put plainly: α-β-Tubulin polymerization assay. The format is biochemical. Also noted: key: a compound showing 0 to 50% inhibition at 20 μM is reported as score 1; Score 2 compounds are defined as compound showing more than 50% inhibition at 20 μM and less than 50% inhibition at 5 μM; a compound showing more than 50% inhibition at 5 μM is reported as score 3. The settings on record: inhibition of polymerization at 20 μM and 5 μM, reported as score. As to the method: The tubulin polymerization assay is an adaptation of an assay originally described by Bonne, D. et al. (J. Biol. Chem., 1985, 260:2819-25). The assay kit was purchased from Cytoskeleton, Inc. (catalogue number BK011) and the assay was performed as described by the supplier with the following modifications. The assay was run in a 384-well black Proxiplate (Perkin Elmer) and volumes were adapted accordingly. The reactions were carried out in a final volume of 10 μl. Compounds were added to 25 μl of the reaction mix in 96-well PP plates (Corning) on ice and 10 μl of this mixture was dispensed into duplicates of the 384-well Proxiplates pre-warmed to 37° C. in a Fluoroskan Ascent plate reader (Thermo Scientific). Fluorescence measurements were taken every minute for one hour. The maximum slope of each well was determined (linear regression through 4 consecutive points) and polymerization was calculated as a percentage of polymerization observed in the absence of compound. Compounds were first measured at a concentration of 20 μM and then at 5 μM for those showing more than 50% inhibition at 20 μM as compared to the polymerization observed in the absence of compound. Results are reported in Table F-2 as scores defined as: a compound showing 0 to 50% inhibition at 20 μM is reported as score 1; a compound showing more than 50% inhibition at 5 μM is reported as score 3.

In data set [1] the test system is Human prostate cancer PC-3 cells. Put plainly: Anti-proliferative effect, Alamar Blue assay, PC-3. The note with it: 4-day incubation; for IC50: Homo sapiens, 96 h, read-out: PC3 antiproliferative activity pIC50 (converted). Also on record: key to PC3 antiproliferative activity pIC50: pIC50 = negative log of IC50 (conc. reducing growth to 50% of control). The format is cell-based. As to the method:
Human prostate cancer PC-3 cells obtained from the ATCC were cultured in HAM'S F12 medium supplemented with 1 mM Sodium Pyruvate, 1.5 g/L Sodium Bicarbonate, 50 μg/ml gentamicin, non-essential amino acids and 10% fetal calf serum.
(§1) Resazurin was purchased from Aldrich (Prod. No. 199303). Potassium ferrocyanide, potassium ferricyanide, KH2PO4 and K2HPO4 were purchased from Sigma (Prod. Nos. P9387, P8131, P5655 and P8281, respectively).
(§2) Potassium Phosphate Buffer 0.1 M (PPB) was made as follows: 2.72 gram KH2PO4 and 13.86 gram K2HPO4 were dissolved in 500 ml milli-Q H2O, the pH was adjusted to pH 7.4 and the volume was brought to 1 liter with milli-Q H2O; the buffer was filter sterilised and stored at room temperature. Resazurin stock solution (PPB-A) was prepared fresh by dissolving 45 mg resazurin in 15 ml PBS. 30 mM potassium ferricyanide (PPB-B) was prepared by dissolving 0.987 gram potassium ferricyanide in 100 ml PPB. 30 mM potassium ferrocyanide (PPB-C) was prepared by dissolving 1.266 gram potassium ferrocyanide in 100 ml PPB.
(§3) Mixture of PPB-A, PPB-B and PPB-C was prepared by mixing equal volumes of the respective solutions. Resazurin work solution (herein termed “Alamar Blue” solution) was prepared by diluting said mixture 20× (vol/vol) in PPB and filter sterilising; the Alamar Blue solution could be kept at 4° C. for a maximum of 2 weeks.
(§4) For experiments in 384 wells plates the cells were seeded at a density of 4.5×10^3 cells/ml in Falcon 384-well culture plates (Life Technologies, Merelbeke, Belgium), black with clear bottom, in 45 μl culture medium. Cells were allowed to adhere to plastic for 24 hours. The tested compound was pre-diluted (1/50 in culture medium) and 5 μl pre-diluted compound was added to the wells. Following 4-day incubation, 10 μl of the Alamar Blue solution was added to each well and the cells were further incubated for 4 hours (HCT116) or 24 hours (PC-3) at 37° C. The fluorescence intensity was measured for each well on a Fluorescence plate reader (Fluoroskan, Labsystems, 540 nm excitation and 590 nm emission)
(§5) The antiproliferative activity was calculated as percentage of remaining viable cells in treated versus control (untreated cells) conditions. Within an experiment, the result for each experimental condition is the mean of 3 replicate wells. When appropriate, the experiments were repeated to establish full concentration-response curves. When appropriate, IC50-values (concentration of the drug, needed to reduce cell growth to 50% of the control) were computed using probit analysis for graded data (Finney, D. J., Probit Analyses, 2nd Ed. Chapter 10, Graded Responses, Cambridge University Press, Cambridge 1962). Herein the effects of test compounds are expressed as pIC50 (the negative log value of the IC50-value) (see Table 3).
Background: Resazurin is reduced to fluorescent resorufin, in cell work by metabolically active cells.

The test system of data set [2] is Human colon carcinoma HCT116 cells. Put plainly: Anti-proliferative effect, Alamar Blue assay, HCT116. The format is cell-based. The settings on record: 4-day incubation; for IC50: Homo sapiens, HCT-116, 96 h, read-out: HCT116 antiproliferative activity pIC50 (converted). As to the method: Human colon carcinoma HCT116 cells obtained from the ATCC were cultured in McCoy's 5A medium supplemented with 2 mM L-Glutamine, 50 μg/ml gentamicin and 10% heat inactivated fetal calf serum.
as §1, §2, §3, §4, §5

The test system of data set [3] is human prostate cancer PC3 cells. Put plainly: Eb1 cellular assay (Eb1 Comet assay). The note with it: 1 hour treatment, LAC = concentration where Eb1 foci absent in at least 50% of treated cells. Type of data set: cell-based. As to the method: The Eb1 Comet assay relies on the detection of the Eb1 protein at the plus end of polymerizing microtubules (Mimori-Kiyosue, 2000) using indirect immunofluorescence. Disruption of microtubule dynamics through de-polymerization or stabilization results in a de-localization of Eb1 from the growing microtubule ends and this is visualized by the disappearance of Eb1 containing cytoplasmic foci.
Briefly, human prostate cancer PC3 cells obtained from the American Type Culture Collection were grown in 96-well plates (Greiner, cat. no. 655090) in HAM's F12 medium as recommended by the provider (ATCC). The cells were treated for 1 hour at 37° C. with compounds dissolved in DMSO (0.6% final DMSO concentration). The culture medium was then removed by aspiration and the cells were fixed by adding cold methanol (−20° C.). After a 15 minutes incubation at −20° C., the cells were washed twice with DPBS (Gibco) containing 0.5% Triton X-100. Mouse Eb1 antibody (BD Transduction Laboratories, cat. no. 610534) was added to the cells (1/250 dilution in DPBS containing 1% BSA) and incubated overnight at room temperature. The antibody was subsequently removed and the cells washed twice with DPBS, 0.5% Triton X-100. Secondary goat anti-mouse antibody conjugated to Alexa 488 fluorescent dye (Molecular Probes) was added at a 1/500 dilution in DPBS, 1% BSA and incubated for 1 hour at 37° C. The cells were washed twice with DPBS, 0.5% Triton X-100 and then DPBS containing 0.5% Triton X-100 and 1/5000 Hoechst 33342 (Molecular Probes) was added. Microscopy based Eb1 foci visualization was carried out using an IN Cell Analyser 1000 (Amersham Biosciences) using a 20× objective. Compound dependent microtubule disruption was visually determined by the disappearance in Eb1 foci. The lowest active concentration (LAC) was determined as the concentration where Eb1 foci were absent in at least 50% of the treated cells. Herein the effects of test compounds are expressed as pLAC (the negative log value of the LAC-value) (see Table 3).

Usually melting point stands for the temperature, or range, at which the solid turns liquid. `CCN1Cc2ccc([C@@](C)(C#N)Cc3cccc(C#N)c3)cc2NC1=O` [Compound 5] returned a melting point of 152 °C. Also, the tubulin polymerization score in the data set with α-β-Tubulin was 1 (a compound showing 0 to 50% inhibition at 20 μM is reported as score 1). Further, the IC50 in data set [1] was more than 10000 nM. For the same compound, the IC50 in data set [2] was more than 10000 nM.
For `CCN1Cc2ccc([C@](C)(C#N)Cc3cccc(C#N)c3)cc2NC1=O` [Compound 6], the melting point worked out at 152 °C. Further, the tubulin polymerization score in the data set on α-β-Tubulin is listed as 3 (a compound showing more than 50% inhibition at 5 μM is reported as score 3). Further, the “Eb1 pLAC” value in data set [3] was 7. Further, the IC50 in data set [1] is 100 nM. Also, in data set [2], the IC50 was 50.1 nM.
Taken in the same sequence, the figures for `CN1Cc2ccc(C(C)(C#N)Cc3ccccc3)cc2NC1=O` (centres unmarked) [Compound 7] were 210 °C, 3 (a compound showing more than 50% inhibition at 5 μM is reported as score 3), 6.5, 501 nM and 794 nM.
On to `CCN1Cc2ccc([C@](C)(C#N)Cc3ccccc3)cc2NC1=O` [Compound 4], for which the melting point is 124 °C. Further, the tubulin polymerization score with α-β-Tubulin is given as 3 (a compound showing more than 50% inhibition at 5 μM is reported as score 3). Moreover, the IC50 in data set [1] is 501 nM. In data set [2], the IC50 is 200 nM.
The compound `C#Cc1cccc(CC(C)(C#N)c2ccc3c(c2)NC(=O)N(CC)C3)c1` (centres unmarked) [Compound 10] yielded a melting point of 84.4 to 102.4 °C. In addition, in the data set on α-β-Tubulin, the tubulin polymerization score is reported as 3 (a compound showing more than 50% inhibition at 5 μM is reported as score 3). Moreover, the “Eb1 pLAC” value in data set [3] is 7. In addition, in data set [1], the IC50 was 316 nM. Further, in data set [2], the IC50 was 158 nM.
With `CCN1Cc2ccc([C@](C)(C#N)Cc3nc(OC)cc(OC)n3)cc2NC1=O` (single isomer, unassigned) [Compound 1], the melting point was found to be 95 °C. The “Eb1 pLAC” value in data set [3] is more than 7.5. Moreover, the IC50 in data set [1] is 79.4 nM. Moreover, the IC50 in data set [2] is 39.8 nM.
The compound `CCN1Cc2ccc([C@@](C)(C#N)Cc3ccccc3)cc2NC1=O` [Compound 3] gave a melting point of 124 °C. In addition, in the data set with α-β-Tubulin, the tubulin polymerization score is 1 (a compound showing 0 to 50% inhibition at 20 μM is reported as score 1). In addition, the IC50 in data set [1] was more than 10000 nM. Moreover, the IC50 in data set [2] was more than 10000 nM.
In the case of `CCN1Cc2ccc(C(C#N)(CC)Cc3nc(OC)cc(OC)n3)cc2NC1=O` (centres unmarked) [Compound 30], in the data set with α-β-Tubulin, the tubulin polymerization score is listed as 3 (a compound showing more than 50% inhibition at 5 μM is reported as score 3). In data set [3], the “Eb1 pLAC” value is reported as 6.5. For the same compound, in data set [1], the “PC3 antiproliferative activity pIC50” value was found to be 6.0. In addition, in data set [2], the “HCT116 antiproliferative activity pIC50” value was determined as 6.4.
Regarding `CCN1Cc2ccc(C(C)(C#N)Cc3cccc(C#CCO)c3)cc2NC1=O` (centres unmarked) [Compound 11], the tubulin polymerization score with α-β-Tubulin is given as 3 (a compound showing more than 50% inhibition at 5 μM is reported as score 3). Also, in data set [3], the “Eb1 pLAC” value is given as 7. The IC50 in data set [1] is 398 nM; in data set [2], 316 nM.
In the data set with α-β-Tubulin, `CCN1Cc2ccc(C(C)(C#N)Cc3cccc(C#N)n3)cc2NC1=O` (centres unmarked) [Compound 21] yielded a tubulin polymerization score of 2. Further, the “Eb1 pLAC” value in data set [3] came out at 5.5. Besides, in data set [1], the “PC3 antiproliferative activity pIC50” value came to 6.1. Moreover, the “HCT116 antiproliferative activity pIC50” value in data set [2] came out at 6.3.
For `CCN1Cc2ccc([C@](C)(C#N)[C@@H]3CCc4c(Cl)ccnc43)cc2NC1=O` [Compound 13], the melting point turned out to be 226 °C. For the same compound, in data set [1], the IC50 is 100 nM. For the same compound, in data set [2], the IC50 was 79.4 nM.
Consider `CCN1Cc2cc(F)c(C(C)(C#N)Cc3cccc(C#N)c3)cc2NC1=O` (centres unmarked) [Compound 26], for which the tubulin polymerization score in the data set with α-β-Tubulin is on record as 3 (a compound showing more than 50% inhibition at 5 μM is reported as score 3). Besides, the “Eb1 pLAC” value in data set [3] stood at 6.5. Also, the “PC3 antiproliferative activity pIC50” value in data set [1] came out at 6.3. The “HCT116 antiproliferative activity pIC50” value in data set [2] is given as 6.6.
The compound `CCN1Cc2ccc(C(C)(C#N)Cc3cccc(I)c3)cc2NC1=O` (centres unmarked) [Compound 8] yielded a melting point of 83 °C. The tubulin polymerization score with α-β-Tubulin is 3 (a compound showing more than 50% inhibition at 5 μM is reported as score 3). Besides, the “Eb1 pLAC” value in data set [3] was determined as 6.5. Also, the IC50 in data set [1] is 501 nM. Further, the IC50 in data set [2] is 200 nM.
As for `CCN1Cc2ccc(C(C)(C#N)Cc3cc(OC)cc(OC)c3)cc2NC1=O` (centres unmarked) [Compound 19], in the data set on α-β-Tubulin, the tubulin polymerization score was 3 (a compound showing more than 50% inhibition at 5 μM is reported as score 3). The “Eb1 pLAC” value in data set [3] amounted to 6.5. Besides, in data set [1], the “PC3 antiproliferative activity pIC50” value is recorded as 6.2. Moreover, in data set [2], the “HCT116 antiproliferative activity pIC50” value stood at 6.4.
